Test [1] has as its system Hepatocyte growth factor receptor (Homo sapiens), P08581 [M1250T]. As to the kind of experiment: (§1) Selectivity interaction (Kinase panel (Z-LYTE Assay)) EUB0001632a MET. Particulars: at 10 µM.
Test [2] deals with Hepatocyte growth factor receptor (Homo sapiens, UniProt P08581). Described as §1. Particulars: at 10 µM.
Test [3] has as its target LIM domain kinase 2 (Homo sapiens) (UniProt P53671). As to the kind of experiment: Selectivity interaction (KinomeScan (DiscoverX)) EUB0000666a LIMK2. Particulars: at 10 µM.
The target in test [4] is Serine/threonine-protein kinase PAK 2 (Homo sapiens) (UniProt Q13177). As to the kind of experiment: Selectivity interaction (SelectScreen profiling (Invitrogen)) EUB0000607a PAK2. Particulars: at 2 µM.
Test [5] concerns the target T1, Inhibitor of nuclear factor kappa-B kinase subunit alpha (Homo sapiens) (UniProt O15111).
T1 sequence (whole entry): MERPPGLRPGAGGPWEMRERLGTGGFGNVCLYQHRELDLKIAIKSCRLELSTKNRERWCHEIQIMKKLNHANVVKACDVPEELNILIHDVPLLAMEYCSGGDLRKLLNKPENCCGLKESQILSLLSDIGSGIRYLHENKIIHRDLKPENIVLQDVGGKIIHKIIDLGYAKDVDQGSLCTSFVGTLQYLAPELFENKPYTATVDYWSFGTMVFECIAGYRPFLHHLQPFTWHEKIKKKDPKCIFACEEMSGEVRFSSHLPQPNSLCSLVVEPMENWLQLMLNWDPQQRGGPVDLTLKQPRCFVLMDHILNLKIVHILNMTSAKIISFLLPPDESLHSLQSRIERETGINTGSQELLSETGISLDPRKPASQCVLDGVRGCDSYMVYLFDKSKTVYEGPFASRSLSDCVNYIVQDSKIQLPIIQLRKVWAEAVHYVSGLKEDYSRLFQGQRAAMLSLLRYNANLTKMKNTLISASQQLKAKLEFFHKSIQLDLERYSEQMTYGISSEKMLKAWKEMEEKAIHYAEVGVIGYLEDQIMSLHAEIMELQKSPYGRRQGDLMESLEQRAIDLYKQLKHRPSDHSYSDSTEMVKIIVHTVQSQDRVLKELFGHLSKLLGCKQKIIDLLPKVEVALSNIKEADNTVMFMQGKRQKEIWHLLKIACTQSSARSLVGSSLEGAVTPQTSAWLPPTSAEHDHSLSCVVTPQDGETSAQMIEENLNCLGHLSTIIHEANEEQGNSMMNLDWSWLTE
Particulars: at 10 µM.

Test [6] has as its target T2, Inhibitor of nuclear factor kappa-B kinase subunit beta (Homo sapiens) (UniProt O14920).
T2 sequence (whole entry): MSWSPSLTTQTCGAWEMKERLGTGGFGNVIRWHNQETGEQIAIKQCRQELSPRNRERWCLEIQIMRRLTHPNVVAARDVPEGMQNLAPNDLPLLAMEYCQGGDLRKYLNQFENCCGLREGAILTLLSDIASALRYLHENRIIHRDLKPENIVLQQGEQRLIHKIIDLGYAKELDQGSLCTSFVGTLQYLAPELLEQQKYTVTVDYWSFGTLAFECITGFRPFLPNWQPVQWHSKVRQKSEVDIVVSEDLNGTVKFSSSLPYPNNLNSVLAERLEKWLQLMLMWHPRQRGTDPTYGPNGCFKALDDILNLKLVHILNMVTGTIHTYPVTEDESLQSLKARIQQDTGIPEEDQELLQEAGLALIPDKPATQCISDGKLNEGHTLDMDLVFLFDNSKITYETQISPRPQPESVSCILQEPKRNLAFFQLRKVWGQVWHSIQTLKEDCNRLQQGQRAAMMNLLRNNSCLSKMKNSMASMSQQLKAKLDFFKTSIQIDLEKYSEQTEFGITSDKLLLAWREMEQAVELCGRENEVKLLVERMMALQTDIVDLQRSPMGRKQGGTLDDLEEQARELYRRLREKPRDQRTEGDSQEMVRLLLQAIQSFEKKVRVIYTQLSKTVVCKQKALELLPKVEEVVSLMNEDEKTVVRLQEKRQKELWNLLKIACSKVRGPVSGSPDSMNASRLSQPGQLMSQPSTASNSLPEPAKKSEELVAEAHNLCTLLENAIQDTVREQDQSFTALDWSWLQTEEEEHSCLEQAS
As to the kind of experiment: Selectivity interaction (ActivX KiNativ screen (kinase selectivity in THP-1 cell lysates)) EUB0000639a IKBKB. It is filed as subcellular. Particulars: lysate, at 0.04 µM.

Test [7] addresses Serine-protein kinase ATM (Homo sapiens) (UniProt Q13315). As to the kind of experiment: Selectivity interaction (ActivX KiNativ screen (kinase selectivity in THP-1 cell lysates)) EUB0000639a ATM. The format is subcellular. Particulars: lysate.
Test [8] deals with Polycomb protein SUZ12 (Homo sapiens) (UniProt Q15022). Particulars: at 1 µM.
In test [9] the target is Tyrosine-protein kinase HCK (Homo sapiens) (UniProt P08631). As to the kind of experiment: Selectivity interaction (ProQinase) EUB0000171b HCK.
The test system of test [10] is Epidermal growth factor receptor (Homo sapiens), P00533 [UNDEFINED MUTATION]. Description: Selectivity interaction (Ambit KINOMEscan and KiNATiv profiling in Jurkat cells) EUB0000090b EGFR. It is filed as cell-based. Particulars: at 1 µM.
Test [11] has as its target SRSF protein kinase 3 (Homo sapiens) (UniProt Q9UPE1). Description: Selectivity interaction (Upstate Kinase Profiler service (Millipore)) EUB0000056c SRPK3. Particulars: at 1 µM.
For test [12], the target named is Cyclin-dependent kinase 2 (Homo sapiens, UniProt P24941). Description: Selectivity interaction (KinomeScan (DiscoverX)) EUB0000655a CDK2. Particulars: at 10 µM.
In test [13] the target is Serine/threonine-protein kinase 24 (Homo sapiens) (UniProt Q9Y6E0). Description: Selectivity interaction (Kinase panel (DSF assay)) EUB0001558a STK24. For orientation: DSF heats the sample and reads unfolding from a dye or from intrinsic fluorescence.
The target in test [14] is Adenosine receptor A2a (Homo sapiens, UniProt P29274). Description: Selectivity interaction (Panel of kinases, GPCRs, ion channels and transporters (enzymatic assay)) EUB0000266bCl ADORA2A.

This is an account of results in ChEMBL document CHEMBL5465560, “Selectivity Literature for EUbOPEN Chemogenomic Library” (2024).

Chain of Serine-protein kinase ATM (Homo sapiens) (Q13315 whole entry): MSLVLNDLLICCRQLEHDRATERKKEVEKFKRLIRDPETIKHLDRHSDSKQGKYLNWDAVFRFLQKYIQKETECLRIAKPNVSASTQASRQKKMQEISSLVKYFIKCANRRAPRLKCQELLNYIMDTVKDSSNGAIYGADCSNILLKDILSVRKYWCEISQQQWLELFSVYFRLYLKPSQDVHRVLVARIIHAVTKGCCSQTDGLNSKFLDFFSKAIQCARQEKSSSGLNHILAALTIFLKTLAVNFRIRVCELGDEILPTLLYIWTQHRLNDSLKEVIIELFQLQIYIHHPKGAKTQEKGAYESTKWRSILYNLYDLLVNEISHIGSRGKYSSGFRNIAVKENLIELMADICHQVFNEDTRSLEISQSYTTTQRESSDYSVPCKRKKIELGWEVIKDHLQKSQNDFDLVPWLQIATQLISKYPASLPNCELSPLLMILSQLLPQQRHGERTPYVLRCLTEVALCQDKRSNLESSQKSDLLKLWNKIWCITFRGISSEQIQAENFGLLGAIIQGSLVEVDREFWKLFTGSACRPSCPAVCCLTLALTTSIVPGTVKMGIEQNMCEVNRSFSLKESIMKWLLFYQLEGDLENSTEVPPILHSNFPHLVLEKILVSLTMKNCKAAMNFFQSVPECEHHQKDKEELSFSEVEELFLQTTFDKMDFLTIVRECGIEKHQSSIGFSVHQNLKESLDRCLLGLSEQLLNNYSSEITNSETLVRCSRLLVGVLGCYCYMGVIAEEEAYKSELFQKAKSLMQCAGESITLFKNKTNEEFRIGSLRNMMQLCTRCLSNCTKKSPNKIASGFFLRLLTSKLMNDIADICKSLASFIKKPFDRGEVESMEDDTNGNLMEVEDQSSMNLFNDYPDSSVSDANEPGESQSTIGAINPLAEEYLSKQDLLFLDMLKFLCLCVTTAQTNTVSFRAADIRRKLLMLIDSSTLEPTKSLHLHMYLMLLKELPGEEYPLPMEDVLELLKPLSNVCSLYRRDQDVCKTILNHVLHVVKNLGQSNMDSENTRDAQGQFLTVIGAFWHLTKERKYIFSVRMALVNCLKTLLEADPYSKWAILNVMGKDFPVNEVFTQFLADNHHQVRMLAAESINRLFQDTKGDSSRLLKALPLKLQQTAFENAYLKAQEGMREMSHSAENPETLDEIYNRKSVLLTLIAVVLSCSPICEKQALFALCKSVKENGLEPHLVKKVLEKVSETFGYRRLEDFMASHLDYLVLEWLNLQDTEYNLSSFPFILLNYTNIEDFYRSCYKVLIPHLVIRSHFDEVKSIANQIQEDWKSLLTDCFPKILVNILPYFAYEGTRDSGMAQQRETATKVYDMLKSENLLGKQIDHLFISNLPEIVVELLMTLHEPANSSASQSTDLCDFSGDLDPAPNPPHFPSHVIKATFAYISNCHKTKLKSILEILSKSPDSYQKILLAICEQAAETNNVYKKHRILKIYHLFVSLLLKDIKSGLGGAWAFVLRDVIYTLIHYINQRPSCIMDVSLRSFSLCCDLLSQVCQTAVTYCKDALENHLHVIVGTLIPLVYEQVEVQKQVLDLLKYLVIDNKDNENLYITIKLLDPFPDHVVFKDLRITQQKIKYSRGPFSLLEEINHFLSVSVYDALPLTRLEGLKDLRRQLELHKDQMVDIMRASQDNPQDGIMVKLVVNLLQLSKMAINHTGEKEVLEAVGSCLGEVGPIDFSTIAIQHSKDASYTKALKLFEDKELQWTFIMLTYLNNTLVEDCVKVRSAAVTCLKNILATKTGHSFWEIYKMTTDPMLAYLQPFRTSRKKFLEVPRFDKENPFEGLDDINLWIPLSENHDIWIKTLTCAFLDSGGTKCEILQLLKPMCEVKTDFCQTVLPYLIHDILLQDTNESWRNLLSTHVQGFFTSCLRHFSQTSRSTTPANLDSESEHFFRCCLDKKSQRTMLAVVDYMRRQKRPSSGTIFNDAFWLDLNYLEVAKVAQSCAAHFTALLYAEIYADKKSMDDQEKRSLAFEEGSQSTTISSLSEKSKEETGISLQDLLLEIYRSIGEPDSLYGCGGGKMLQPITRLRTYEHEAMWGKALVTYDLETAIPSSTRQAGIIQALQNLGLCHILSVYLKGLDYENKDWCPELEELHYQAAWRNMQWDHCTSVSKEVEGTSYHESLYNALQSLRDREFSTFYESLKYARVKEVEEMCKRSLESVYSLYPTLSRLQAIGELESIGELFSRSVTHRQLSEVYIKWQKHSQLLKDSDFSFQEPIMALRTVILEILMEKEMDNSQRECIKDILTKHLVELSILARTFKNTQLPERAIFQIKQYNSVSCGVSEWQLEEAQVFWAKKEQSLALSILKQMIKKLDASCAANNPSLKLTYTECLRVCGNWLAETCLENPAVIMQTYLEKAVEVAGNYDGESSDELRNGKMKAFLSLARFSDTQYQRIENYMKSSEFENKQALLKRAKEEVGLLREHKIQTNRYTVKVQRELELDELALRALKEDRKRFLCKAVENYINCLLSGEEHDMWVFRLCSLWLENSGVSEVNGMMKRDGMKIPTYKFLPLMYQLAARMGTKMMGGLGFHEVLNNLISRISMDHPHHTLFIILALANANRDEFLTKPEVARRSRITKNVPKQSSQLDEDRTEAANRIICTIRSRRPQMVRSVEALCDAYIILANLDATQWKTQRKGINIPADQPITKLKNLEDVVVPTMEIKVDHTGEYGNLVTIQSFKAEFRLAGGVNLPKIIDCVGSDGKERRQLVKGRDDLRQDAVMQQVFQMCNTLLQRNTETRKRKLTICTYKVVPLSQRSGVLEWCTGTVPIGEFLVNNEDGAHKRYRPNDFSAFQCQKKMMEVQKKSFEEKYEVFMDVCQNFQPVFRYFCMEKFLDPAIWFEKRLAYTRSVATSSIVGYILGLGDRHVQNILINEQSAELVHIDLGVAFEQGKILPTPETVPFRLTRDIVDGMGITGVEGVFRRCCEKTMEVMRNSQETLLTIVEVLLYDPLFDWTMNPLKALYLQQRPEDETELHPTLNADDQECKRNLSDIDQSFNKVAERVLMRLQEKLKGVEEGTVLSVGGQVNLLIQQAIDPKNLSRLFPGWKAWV
Chain of Tyrosine-protein kinase HCK (Homo sapiens) (P08631 2-526 limits assumed): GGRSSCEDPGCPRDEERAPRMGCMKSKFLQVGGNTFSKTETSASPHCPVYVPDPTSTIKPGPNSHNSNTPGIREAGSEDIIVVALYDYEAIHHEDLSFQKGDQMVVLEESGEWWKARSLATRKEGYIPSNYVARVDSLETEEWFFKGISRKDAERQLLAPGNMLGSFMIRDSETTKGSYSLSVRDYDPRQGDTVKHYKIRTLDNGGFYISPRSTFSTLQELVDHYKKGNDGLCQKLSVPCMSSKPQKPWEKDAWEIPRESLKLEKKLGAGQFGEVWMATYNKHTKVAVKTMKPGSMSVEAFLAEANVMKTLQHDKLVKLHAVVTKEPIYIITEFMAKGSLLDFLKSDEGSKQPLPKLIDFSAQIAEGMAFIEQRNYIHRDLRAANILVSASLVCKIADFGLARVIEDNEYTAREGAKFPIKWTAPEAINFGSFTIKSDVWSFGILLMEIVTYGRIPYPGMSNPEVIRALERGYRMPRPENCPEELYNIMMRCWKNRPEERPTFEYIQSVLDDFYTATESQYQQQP
Chain of Epidermal growth factor receptor (Homo sapiens), P00533 [UNDEFINED MUTATION] (P00533 whole entry, looked up, change not shown): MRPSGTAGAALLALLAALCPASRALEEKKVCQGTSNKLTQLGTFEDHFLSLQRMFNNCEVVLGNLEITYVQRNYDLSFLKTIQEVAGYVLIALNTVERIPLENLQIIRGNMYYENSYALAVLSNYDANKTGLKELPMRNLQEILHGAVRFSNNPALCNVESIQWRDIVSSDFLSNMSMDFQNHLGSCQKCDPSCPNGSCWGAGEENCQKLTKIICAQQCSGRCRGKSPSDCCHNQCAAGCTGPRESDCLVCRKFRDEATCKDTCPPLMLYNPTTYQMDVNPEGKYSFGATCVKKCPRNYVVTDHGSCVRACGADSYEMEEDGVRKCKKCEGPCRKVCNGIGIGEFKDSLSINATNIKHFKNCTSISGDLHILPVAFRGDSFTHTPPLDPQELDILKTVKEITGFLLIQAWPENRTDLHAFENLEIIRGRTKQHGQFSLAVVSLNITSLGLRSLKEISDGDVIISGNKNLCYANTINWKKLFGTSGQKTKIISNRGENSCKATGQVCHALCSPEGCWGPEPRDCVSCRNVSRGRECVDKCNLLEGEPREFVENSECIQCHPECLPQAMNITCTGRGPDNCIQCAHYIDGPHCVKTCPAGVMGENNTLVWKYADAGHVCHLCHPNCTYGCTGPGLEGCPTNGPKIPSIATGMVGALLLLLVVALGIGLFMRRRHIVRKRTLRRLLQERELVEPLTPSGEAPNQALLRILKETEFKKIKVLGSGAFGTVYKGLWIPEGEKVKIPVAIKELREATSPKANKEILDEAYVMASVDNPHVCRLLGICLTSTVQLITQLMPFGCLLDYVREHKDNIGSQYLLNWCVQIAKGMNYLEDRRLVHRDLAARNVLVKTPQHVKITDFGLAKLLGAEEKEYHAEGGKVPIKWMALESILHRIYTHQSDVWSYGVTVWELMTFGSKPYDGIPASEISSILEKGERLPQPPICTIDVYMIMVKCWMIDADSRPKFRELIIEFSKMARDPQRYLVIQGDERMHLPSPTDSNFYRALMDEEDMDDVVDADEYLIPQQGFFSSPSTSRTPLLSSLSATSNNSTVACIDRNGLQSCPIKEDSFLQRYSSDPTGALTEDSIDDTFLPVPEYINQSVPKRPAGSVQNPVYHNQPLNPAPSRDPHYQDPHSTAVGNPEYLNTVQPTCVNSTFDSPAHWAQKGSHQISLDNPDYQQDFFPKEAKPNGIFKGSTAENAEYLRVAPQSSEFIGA

As to `Cn1cc(-n2cnc3c(NCc4nc5cc(Cl)c(Cl)cc5[nH]4)nc(N4CCOCC4)nc32)cn1`, the % of control in test [1] is 1.3%; in test [2] it was -11.4%.

Turning to `O=C(NOC[C@H](O)CO)c1ccc(F)c(F)c1Nc1ccc(I)cc1F`, the % of control in [3] is 100%. As to `CNC(=O)Nc1ccc(-c2nc(N3CC4CCC(C3)O4)c3cnn(C4CCC5(CC4)OCCO5)c3n2)cc1`, the % of inhibition in [4] came out at 15%. In the case of `Cc1cc([C@@H](C)Nc2ccccc2C(=O)O)c2nc(N3CCOCC3)cc(=O)n2c1` [AZD-6482], in test [5], the % of control amounted to 100%.

In the case of `CC[C@@H]1[C@H](F)C(=O)N[C@@H]1COc1nccc2cc(C(N)=O)c(OC)cc12` [ZIMLOVISERTIB], the % of inhibition in test [6] was -3.9%; in test [7] (at 0.01 µM), 12.7%; in [7] (at 0.04 µM) it was -2.1%; in test [7] (at 0.2 µM), -2.2%; in test [7] (at 1 µM) it was -15.7%; in test [7] (at 5 µM), 24%.

In test [8], `CNCCN1CCC(c2cc(CN(C)C(=O)c3cccc(Oc4ccccc4)c3)ccn2)CC1` had a % activity of over 90%. On to `C=CC(=O)Nc1cccc(C(=O)Nc2ccc(Nc3cc(-c4[nH]c(SC)nc4C)ccn3)cc2)c1`, for which the % of control in test [9] (at 1 µM) is 105%; in test [9] (at 5 µM) it was 88%. With `CN(C)C/C=C/C(=O)Nc1ccc(C(=O)N2CCCC(Nc3ncc(Cl)c(-c4c[nH]c5ccccc45)n3)C2)cc1` (centres undefined), in test [10], the % of control was found to be 91%. Regarding `Cc1ccc(-c2ccc3c(ccc4sc5c(c43)NC[C@@H](C)NC5=O)n2)cn1`, in [11], the % of inhibition was 36%.

Take `CN(C)CCOc1ccc(-c2nc(-c3ccncc3)c(-c3ccc4c(c3)CC/C4=N\O)[nH]2)cc1`: the % of control in [12] stood at 100%. Take `CC(C)(O)[C@H](F)CN1Cc2cc(NC(=O)c3cnn4cccnc34)c(N3CCOCC3)cc2C1=O`: the dTM in [13] was determined as 0.1 K. In the case of `CCn1c(-c2nc3cc(C(=O)N4CCCC(N)C4)ccc3n2C)cc2ccccc21` (centres undefined), in test [14], the pXC50 was under 4.5 M.
